Three compounds from patent US12486253B2, “Therapeutics for the degradation of mutant BRAF” (C4 THERAPEUTICS, INC., priority 2021, dated 2025) can be followed below.

“Also recorded” adds a separate entry of the source.

For test [1], the system named is A375 cells expressing the oncogenic NRAS^Q61K mutation. The test is described as follows: Cellular growth over time of A375 cells expressing NRAS^Q61K. In kind it is cell-based.
Test [2] has as its system ERK phosphorylation. The test is described as follows: Western blot of ERK phosphorylation in A375 cells expressing NRAS^Q61K. The settings on record: 24 hours. It counts as cell-based.
For test [3], the system named is A375 cells. Briefly: CellTiter-Glo cell growth inhibition, A375 cells. In kind it is cell-based. The settings on record: Homo sapiens, A-375, 72 hr, mean of at least n = 3. The method, then: (§1) A375 cell viability was determined based on quantification of ATP using CellTiter-Glo® 2.0 luminescent Assay kit, which signals the presence of metabolically-active cells. Briefly, test compound was added to 384-well plates at a top concentration of 10 μM with 14 points, half log titration in duplicates. A375 cells were seeded into the 384-well plates in DMEM medium containing 10% FBS at a cell density of 250 cells per well. Cells treated in the absence of the test compound were the negative control, normalized to 100% viability, and cells treated in the absence of CellTiter-Glo® 2.0 were the positive control, normalized to 0% viability. A375 cells were incubated at 37° C. with 5% CO2 for 72 hr. CellTiter-Glo reagent was then added to the cells and Luminescence was acquired on EnVision™ Multilabel Reader (PerkinElmer, Santa Clara, CA, USA).

Test [4] concerns H1666 cells endogenously expressing the class III BRAF mutation G466V. Briefly: Cellular growth over time in H1666 cells. To be noted: G466V. It counts as cell-based.
Test [5] concerns phospho-ERK (T202/Y204). Briefly: HTRF phospho-ERK (T202/Y204) assay in A375-NRAS^Q61K cells. It counts as cell-based. The settings on record: 24 hrs, mean of at least n = 3, read-out: pERK IC50. An excerpt:
A375-NRAS^Q61K cells (harboring BRAF homozygous V600E mutation and NRAS homozygous Q61K mutation) were purchased from ATCC. DMEM Medium without phenol red and supplemented with L-glutamine was purchased from Corning (Corning, NY, USA). Advanced phospho-ERK (Thr202/Tyr204) HTRF assay kits were purchased from Cisbio (Bedford, MA, USA). Cell culture flasks and 384-well microplates were acquired from VWR (Radnor, PA, USA) or Corning (Corning, NY, USA).
(§2) Degradation of activated phospho-ERK (T202/Y204) protein was determined based on quantification of FRET signal using the Advanced phospho-ERK (T202/Y204) HTRF assay kit. Test compounds were added to the 384-well plate from a top concentration of 10 μM with 11 points, half log titration in duplicates. A375-NRAS^Q61K cells were added into 384-well plates at a cell density of 2000 cells per well. The plates were kept at 37° C. with 5% CO2 for 24 hours. Cells treated in the absence of the test compound were the negative control. Positive control was set by wells containing all reagents but no cells. FRET signal was acquired on EnVision™ Multilabel Reader (PerkinElmer, Santa Clara, CA, USA).

The test system of test [6] is A375 NRAS^Q61K mutant melanoma cell line xenograft. Briefly: In vivo efficacy in A375 NRAS^Q61K mutant melanoma xenograft. Also on record: species or system BALBc/Nude mice. To be noted: oral gavage, with MEKi trametinib 0.1 mg/kg BID.
In a further test the test system is A375-NRAS^Q61K cells. Briefly: CellTiter-Glo growth inhibition assay, A375-NRAS^Q61K cells. To be noted: 96 hr, mean of at least n = 3. It counts as cell-based. The method, then: A375-NRAS^Q61K cells (harboring BRAF homozygous V600E mutation and NRAS homozygous Q61K mutation) were purchased from ATCC. DMEM Medium (without phenol red and supplemented with L-glutamine) was purchased from Corning (Corning, NY, USA). CellTiter-Glo® 2.0 Assay was purchased from Promega (Madison, WI, USA). Cell culture flasks and 384-well microplates were acquired from VWR (Radnor, PA, USA) or Corning (Corning, NY, USA).
as §1, with “A375-NRAS^Q61K cell viability” for “A375 cell viability”, “in duplicates. A375-NRAS^Q61K cells were” for “in duplicates. A375 cells were”, “CO2 for 96 hr. CellTiter-Glo” for “CO2 for 72 hr. CellTiter-Glo”

The subject of test [7] is phospho-ERK (T202/Y204). The test is described as follows: HTRF phospho-ERK (T202/Y204) inhibition assay in A375 cells. In kind it is cell-based. The settings on record: Homo sapiens, A-375, 24 hrs, mean of at least n = 3, read-out: pERK IC50. The method, then: A375 (harboring BRAF homozygous V600E mutation) were purchased from ATCC. DMEM Medium without phenol red and supplemented with L-glutamine was purchased from Corning (Corning, NY, USA). Advanced phospho-ERK (Thr202/Tyr204) HTRF assay kits were purchased from Cisbio (Bedford, MA, USA). Cell culture flasks and 384-well microplates were acquired from VWR (Radnor, PA, USA) or Corning (Corning, NY, USA).
as §2, with “A375” for “A375-NRAS^Q61K”, “8000” for “2000”, “well, respectively.” for “well.”

In a further test the test system is LOXL4. The test is described as follows: Global proteomics profiling, A375 cells. To be noted: 300 nM, 24 hours. It counts as cell-based, human. Here is the method: Each cell line was treated in duplicate with either DMSO or Compound 157 (final concentration 300 nM) for 24 hours in an incubator at 37° C. with 5% CO2. After the 24-hour incubation, cells were harvested, washed twice with PBS, and snap frozen in liquid nitrogen. Samples were re-suspended in lysis buffer [8 M urea, 50 mM HEPES (pH 8.5), 50 mM NaCl, 1× protease inhibitor cocktail] and lysed by sonication at 4° C. with 85% amplitude in a pulse setting with 30 seconds on and 30 seconds off for a total sonication time of 5 minutes. Lysates were centrifuged at maximum speed for 10 minutes at 4° C. and the supernatant collected, reduced for 1 hour at room temperature with 5 mM TCEP, and the cysteine residues were then alkylated with 15 mM iodoacetamide (room temperature, in dark, 30 minutes). Protein content was extracted by methanol-chloroform precipitation and subsequent ice-cold acetone washes. Protein pellets were resuspended in 8 M urea, 50 mM HEPES (pH 8.5) buffer and protein concentrations were measured by BCA assay. […]
For peptide tandem mass tag (TMT) labeling, 100 μg of peptides per sample was prepared at […] concentration in 200 mM HEPES (pH 8.5), 30% acetonitrile (ACN) and each the specific TMT reagent. […] TMT reporter ion intensities were quantified by extracting the signal-to-noise ratio for each. […]

The target in the next test is BRAF V600E (Homo sapiens, UniProt P15056, V600E). The test is described as follows: Western blot of BRAF V600E levels in A375 cells. In kind it is cell-based. Further details: host or cells: A375.
Test [8] deals with BRAF V600E, test compound and CRBN ternary complex (Homo sapiens, UniProt P15056+Q96SW2, V600E). Briefly: AlphaLISA ternary complex formation assay. The settings on record: GST-BRAF V600E 16 nM, His-CRBN 64 nM. In kind it is binding. Here is the method:
Formation of the ternary complex between BRAF V600E, test compound and CRBN was quantified using AlphaLISA® assay. GST-tagged BRAF V600E and His-tagged CRBN were labeled with a donor/acceptor AlphaLISA® pair, and complex formation was monitored via a change in the Alpha-signal. Signal from the control wells was used as a normalization control.
Characterization of the ternary complex formation between GST-BRAF V600E, Compound 157 and his-CRBN was carried out using an AlphaLISA® assay. Compounds were dispensed from serially diluted DMSO stock in low dead volume plates into gray 384-well AlphaPlates using acoustic technology to 1% of total reaction volume. Compounds were arranged vertically in rows A through P. Concentration series were horizontal: columns 1-11, and then duplicates in columns 12-22.
Excitation of the donor beads results in generation of singlet oxygen molecules. […]
A 10 μL mixture containing 16 nM of BRAF V600E and 64 nM of CRBN in 50 mM HEPES (pH 7.4), 200 mM NaCl, 1 mM TCEP, 0.05% Pluronic Acid, 0.1% BSA was added to the wells containing test compounds (columns 1-22) and the negative control wells (column 23). […] Plates were then read on an Envision plate reader with an appropriate AlphaLISA® filter set.

In test [9] the test system is A375 cells. Briefly: Cellular confluence of A375 cells by live cell imaging. In kind it is cell-based. The settings on record: end of the 7-day experiment.
In test [10] the test system is ERK phosphorylation. Briefly: ERK phosphorylation (pERK) in A375 cells. In kind it is cell-based.

Sequence of BRAF V600E (P15056 whole entry V600E): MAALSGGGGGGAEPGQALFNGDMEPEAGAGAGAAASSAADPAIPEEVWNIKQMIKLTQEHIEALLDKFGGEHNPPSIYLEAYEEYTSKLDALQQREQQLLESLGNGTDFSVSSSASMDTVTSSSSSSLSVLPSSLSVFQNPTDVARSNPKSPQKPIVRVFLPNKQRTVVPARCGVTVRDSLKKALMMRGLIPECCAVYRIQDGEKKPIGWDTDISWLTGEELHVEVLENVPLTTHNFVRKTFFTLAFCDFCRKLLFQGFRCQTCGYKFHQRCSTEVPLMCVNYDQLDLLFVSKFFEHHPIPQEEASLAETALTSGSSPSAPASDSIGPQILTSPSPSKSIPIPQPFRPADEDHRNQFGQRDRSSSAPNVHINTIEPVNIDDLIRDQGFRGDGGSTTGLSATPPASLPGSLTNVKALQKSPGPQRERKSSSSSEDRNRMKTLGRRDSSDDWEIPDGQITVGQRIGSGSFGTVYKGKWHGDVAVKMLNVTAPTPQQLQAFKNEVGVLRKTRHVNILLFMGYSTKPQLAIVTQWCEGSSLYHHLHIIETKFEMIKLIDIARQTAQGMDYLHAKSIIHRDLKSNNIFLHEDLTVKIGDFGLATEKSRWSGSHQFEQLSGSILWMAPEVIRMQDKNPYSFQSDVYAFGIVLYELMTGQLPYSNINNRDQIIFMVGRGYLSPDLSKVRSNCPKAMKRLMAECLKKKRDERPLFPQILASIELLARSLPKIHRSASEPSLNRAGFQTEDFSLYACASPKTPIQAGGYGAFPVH
Sequence of BRAF V600E, test compound and CRBN ternary complex (P15056 whole entry V600E): as above
Sequence of BRAF V600E, test compound and CRBN ternary complex (Q96SW2 whole entry): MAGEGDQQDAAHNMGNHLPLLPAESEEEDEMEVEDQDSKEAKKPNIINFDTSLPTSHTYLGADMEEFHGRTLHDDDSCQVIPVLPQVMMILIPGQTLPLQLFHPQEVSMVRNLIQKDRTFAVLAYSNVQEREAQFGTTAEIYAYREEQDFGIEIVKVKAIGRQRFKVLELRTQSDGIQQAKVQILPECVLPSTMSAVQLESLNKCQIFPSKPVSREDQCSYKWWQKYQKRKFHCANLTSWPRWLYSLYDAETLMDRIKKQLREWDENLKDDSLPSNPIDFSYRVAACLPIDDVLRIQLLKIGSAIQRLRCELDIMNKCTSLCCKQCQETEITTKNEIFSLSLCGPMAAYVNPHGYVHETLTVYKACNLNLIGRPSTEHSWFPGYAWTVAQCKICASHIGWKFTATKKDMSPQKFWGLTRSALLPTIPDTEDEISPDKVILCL

Turning to `COC(=O)N[C@@H](C)CNc1nccc(-c2cn(C(C)C)nc2-c2cc(Cl)cc(NS(C)(=O)=O)c2F)n1` [encorafenib, reference compound], the cell growth inhibition result is “does not inhibit cell growth” in test [1] and “no activity; also recorded: does not inhibit cell growth” in [4]. The “ERK phosphorylation, in combination with trametinib” value with ERK phosphorylation [2] (with 1 nM trametinib) is “unable to significantly suppress”. The “ERK phosphorylation, alone” value in the test with ERK phosphorylation [2] (without trametinib) is recorded as “unable to significantly suppress”. For the same compound, the GI50 stood at 8 nM in the test on A375 cells [3] and 911 nM in the test on A375-NRAS^Q61K cells. The IC50 in the test on phospho-ERK (T202/Y204) [5] was 31 nM; with phospho-ERK (T202/Y204) [7], 2.1 nM. Further, in test [6], the “tumor response, in combination with trametinib” value was “no activity”.
In the case of `CC(C)(C)c1nc(-c2cccc(NS(=O)(=O)c3c(F)cccc3F)c2F)c(-c2ccnc(N)n2)s1` [dabrafenib, reference compound], the “LOXL4 protein level change” value with LOXL4 is listed as “decreased on the dabrafenib treated samples, to a lesser extent”.
With `CCN(C)S(=O)(=O)Nc1ccc(F)c(Oc2ccc3ncn([C@H]4COC5(CCN(C(=O)CC6(O)CCN(c7cc8c(cc7F)c(N7CCC(=O)N(C)C7=O)nn8C)CC6)CC5)C4)c(=O)c3c2)c1C#N` [Compound 157^NMe, reference compound], the “BRAF V600E levels” value at BRAF V600E is given as “remain unchanged”. Moreover, the cell growth inhibition result is on record as “not inhibited” in test [1] and “not inhibited as significantly” in [4]. For the same compound, the “Ternary complex formation (concentration dependence)” value in test [8] was “no complex formation was observed”. For the same compound, the GI50 with A375 cells [3] turned out to be 22.5 nM; in the test with A375-NRAS^Q61K cells, 794 nM. In addition, the cellular confluence result in the test with A375 cells [9] is reported as “approximately 70%”. The “ERK phosphorylation by western blot” value with ERK phosphorylation [10] is recorded as “not as pronounced”. In addition, the figures for the IC50 with phospho-ERK (T202/Y204) [5] and with phospho-ERK (T202/Y204) [7] were 36.8 nM and 13.5 nM, respectively.
